According to publication PMC4604621, “Cytotoxicity, nitric oxide and acetylcholinesterase inhibitory activity of three limonoids isolated from Trichilia welwitschii (Meliaceae)” (Biological Research, 2015):
≈ marks a conversion by molar mass, not a printed value. Where two headings read alike, the source gives them in different places.

Legend:
[1] = test system: nitric oxide production from LPS-activated macrophages; settings: read-out: IC50 against nitric oxide production; cited from earlier work
[2] = target: T1, acetylcholinesterase (AChE) enzyme from electric eels (Electrophorus electricus, UniProt O42275); experiment: biochemical; settings: for inhibition at 6.25 µg/mL / inhibition at 12.5 µg/mL / inhibition at 25 µg/mL / inhibition at 50 µg/mL: read-out: % AChE inhibition; for IC50: read-out: AChE inhibition IC50 (converted)
T1 construct: purchased Sigma (Germany) type VI-S lyophilized powder (catalogue number not given)
Method: Inhibition of acetylcholinesterase activity was determined using Ellman’s colorimetric method with slight modifications. […] Then, AChE (0.2 U/mL) was added to the wells and the absorbance was determined spectrophotometrically (BioTek Synergy microplate reader) at 405 nm. Distilled water was used as negative control. […] The IC50 values of samples leading to 50 % inhibition were calculated by plotting the percentage of inhibition against the concentrations.

[3] = test system: RAW 264.7 macrophages; experiment: Cell viability of LPS-activated RAW 264.7 macrophages (MTT); format: cell-based, murine; settings: Fig. 1b, at the concentration leading to effective inhibition of NO production
Method: To determine whether the observed nitric oxide inhibition was not due to cytotoxic effects, MTT assay was also performed on the macrophage cells as previously described.

[4] = test system: human monocytic THP-1; experiment: MTT cytotoxicity assay on THP-1 cells; format: cell-based
Method: (§1) Cells lines including human monocytic THP-1, murine macrophage RAW 264.7 and the Vero monkey kidney cell lines were obtained from the American Type Culture Collection (Rockville, MD, USA). They were maintained in DMEM supplemented with 10 % fetal calf serum (FCS) and 1 % penicillin/streptomycin/fongizone (PSF) under standard cell culture conditions at 37 °C and 5 % CO2 in a humidified environment.
(§2) The cytotoxicity of compounds was determined by the 3-[4,5-dimethylthiazol-2-yl]-2,5-diphenyltetrazolium (MTT) assay as previously described. The selectivity index (SI) values were calculated by dividing cytotoxicity LC50 values of normal Vero cells by the LC50 of cancer cells in the same units.

[5] = test system: murine macrophage RAW 264.7; experiment: MTT cytotoxicity assay on RAW 264.7 cells; format: cell-based; settings: Mus musculus
Method: as §1, §2

[6] = MTT cytotoxicity assay on Vero cells; format: cell-based; settings: monkey
Method: as §1, §2

[7] = test system: nitric oxide production in LPS-stimulated RAW 264.7 macrophages; experiment: Nitric oxide production in LPS-activated RAW 264.7 macrophages (Griess reagent); format: cell-based, murine; settings: 0.5 µg/mL compound, 1 µg/mL LPS, 24 h
Method: Fig. 1 Inhibitory activity of three limonoids isolated from Trichilia welwitschii on nitrix oxide production. The RAW 264.7 macrophages cells were seeded in 96 well-microtitre plates and were activated by incubation in medium containing 1 µg/mL LPS alone (control) or lipopolysaccharide with different concentrations of the samples dissolved in DMSO. Nitric oxide released from macrophages was determined by measuring the nitrite concentration in culture supernatant using the Griess reagent. The concentrations of nitrite were derived from regression analysis using serial dilutions of sodium nitrite as a standard. Percentage inhibition was calculated based on the ability of compounds to inhibit nitric oxide formation by cells compared with the control (cells in media without compounds), which was considered as 0 % inhibition.
The RAW 264.7 macrophages cells were seeded in 96 well-microtitre plates and were activated by incubation in medium containing 1 µg/mL LPS alone (control) or lipopolysaccharide with different concentrations of the samples dissolved in DMSO. […]
Nitric oxide released from macrophages was determined by measuring the nitrite concentration in culture supernatant using the Griess reagent. […] The absorbance of the resultant solutions was determined on a BioTek Synergy microplate reader after 10 min at 550 nm. […]

[8] = THP-1, read-out: Cytotoxicity LC50 THP-1
[9] = RAW264.7, read-out: Cytotoxicity LC50 RAW 264.7
[10] = Vero kidney cells, Vero cells, MTT, read-out: Cytotoxicity LC50 Vero
[11] = RAW264.7, RAW 264.7 cells, MTT, read-out: Cytotoxicity LC50 RAW 264.7
[12] = human, mouse, THP-1 and RAW 264.7 cells (range over the cell lines), range over the cell lines tested (Vero, THP-1, RAW 264.7), read-out: LC50 values (range over the cell lines)

T1 sequence (O42275 24-633): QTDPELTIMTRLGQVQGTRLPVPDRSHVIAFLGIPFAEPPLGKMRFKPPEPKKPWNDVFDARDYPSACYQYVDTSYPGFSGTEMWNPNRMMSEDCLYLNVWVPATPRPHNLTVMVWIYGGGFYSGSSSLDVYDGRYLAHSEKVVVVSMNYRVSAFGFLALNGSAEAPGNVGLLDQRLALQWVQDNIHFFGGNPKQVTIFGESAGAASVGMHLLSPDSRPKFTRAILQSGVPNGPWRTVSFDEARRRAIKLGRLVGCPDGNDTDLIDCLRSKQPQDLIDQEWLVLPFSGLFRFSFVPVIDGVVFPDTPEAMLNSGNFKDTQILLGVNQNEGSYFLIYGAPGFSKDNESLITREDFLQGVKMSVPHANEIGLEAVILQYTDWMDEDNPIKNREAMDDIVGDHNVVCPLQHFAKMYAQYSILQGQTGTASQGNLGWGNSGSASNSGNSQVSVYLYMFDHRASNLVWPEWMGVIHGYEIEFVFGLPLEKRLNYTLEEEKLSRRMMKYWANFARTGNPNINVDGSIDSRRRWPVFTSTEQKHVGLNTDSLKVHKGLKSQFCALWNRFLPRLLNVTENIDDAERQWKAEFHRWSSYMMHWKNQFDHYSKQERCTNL

Row | Structure (SMILES) | IC50 [1] | inhibition at 6.25 µg/mL [2] | inhibition at 12.5 µg/mL [2] | inhibition at 25 µg/mL [2] | inhibition at 50 µg/mL [2] | IC50 [2] | Cytotoxicity against RAW 264.7 macrophages by MTT assay [3] | CC50 [4, 8] | CC50 [5, 9] | CC50 [6, 10] | Amount of nitric oxide released [7] | CC50 [5, 11] | CC50 [6, 12] | CC50 ([4]; THP-1 cells, MTT, read-out: Cytotoxicity LC50 THP-1)
1 | CC[C@H](C)C(=O)O[C@H]1[C@@]23O[C@]4(O)[C@@](C)([C@@H](CC(=O)OC)C(C)(C)[C@H](OC(=O)C(C)C)[C@]14O)[C@H]2CC[C@]1(C)[C@H]3CC(=O)O[C@H]1c1ccoc1 [2-hydroxyxylorumphiin F] | 24.5 µM | – | – | – | – | – | – | – | – | – | – | – | – | –
2 | C=C1[C@@]23O[C@@H]2C[C@@H](c2ccoc2)[C@]3(C)[C@@H](OC(=O)C(O)C(C)CC)[C@H](C(=O)O)[C@]1(C)[C@](C)(C1CC(=O)O[C@]1(C)CO)[C@H](CC(=O)OC)OC(C)=O (stereo partly drawn) [Compound 1, trichilia lactone D5] | – | 28 ± 6.56% | 18 ± 8.89% | 71.7 ± 6.03% | 94.3 ± 8.15% | 26.6 µM | slight toxic effect | 81.2 ± 6.38 µg/mL (≈ 113 µM) | 23.6 ± 5.77 µg/mL (≈ 32.8 µM) | 89.2 ± 5 µg/mL (≈ 124 µM) | – | – | – | –
3 | C=C1[C@@]2(O)C(=O)C[C@@H](c3ccoc3)[C@]2(C)[C@@H](OC(=O)C(O)C(C)CC)[C@@H]2O[C@H]3CC(=O)O[C@]4(C)COC(=O)CC4[C@@]3(C)[C@]12C (stereo partly drawn) [Compound 2, rohituka 3] | – | 14 ± 6% | 47.3 ± 2.08% | 67 ± 4.36% | 82.7 ± 7.04% | 55.6 µM | – | 81.2 ± 4.04 µg/mL (≈ 132 µM) | 65.7 ± 3.64 µg/mL (≈ 107 µM) | 85.2 ± 6.31 µg/mL (≈ 139 µM) | 2.97 µM | – | – | –
4 | C=C1[C@@]23O[C@@H]2C[C@@H](c2ccoc2)[C@]3(C)[C@@H](OC(=O)C(O)C(C)CC)[C@@H]2O[C@H]3CC(=O)O[C@]4(C)COC(=O)CC4[C@@]3(C)[C@]12C (stereo partly drawn) [Compound 3, dregeanin DM4] | – | 30.3 ± 3.51% | 31.7 ± 5.2% | 70.7 ± 3.5% | 87 ± 8.74% | 76.3 µM | – | 84.5 ± 5.81 µg/mL (≈ 141 µM) | 61.9 ± 4.14 µg/mL (≈ 103 µM) | 75.8 ± 1.85 µg/mL (≈ 127 µM) | 2.93 µM | – | – | –
5 | COc1cccc2c1C(=O)c1c(O)c3c(c(O)c1C2=O)C[C@@](O)(C(=O)CO)C[C@@H]3O[C@H]1C[C@H](N)[C@H](O)[C@H](C)O1 [Doxorubicin] | – | – | – | – | – | – | – | – | – | 9.35 ± 0.66 µg/mL (≈ 17.2 µM) | – | 1.06 ± 0.65 µg/mL (≈ 1.95 µM) | 1.06 to 9.35 µg/mL (≈ 1.95 to 17.2 µM) | –
6 | COc1ccc(C[C@H](N)C(=O)N[C@H]2[C@@H](O)[C@H](n3cnc4c(N(C)C)ncnc43)O[C@@H]2CO)cc1 [Puromycin, reference compound] | – | – | – | – | – | – | – | – | – | 5.32 ± 0.9 µg/mL (≈ 11.3 µM) | – | 1.15 ± 0.17 µg/mL (≈ 2.44 µM) | 1.15 to 5.32 µg/mL (≈ 2.44 to 11.3 µM) | 0.4 ± 0.02 µg/mL (≈ 0.848 µM)
7 | CC[C@H](C)C(=O)O[C@H]1C(C)(C)[C@H](CC(=O)OC)[C@@]2(C)[C@H]3CC[C@]4(C)C(=CC(=O)O[C@H]4c4ccoc4)[C@]34O[C@@]2(O)[C@@]1(O)[C@H]4OC(=O)[C@@H](C)CC [xylorumphiin I] | 31.3 µM | – | – | – | – | – | – | – | – | – | – | – | – | –
